In patent US20230218654A1, “COMPOSITIONS AND METHODS FOR TREATING HYPERGLYCEMIA IN TYPE-2 DIABETES” (The Board of Regents of the university of Oklahoma, priority 2020, published 2023):
Entries after “also recorded” stand apart in the source; their conditions may differ.

Assays:
male C57BL6/J mice = test: Plasma/serum insulin and c-peptide after acute neddylation inhibitor treatment; assay type: in vivo
Procedure: Male C57BL6/J mice on chow diet were treated with 45 mg/kg TAS4464 via subcutaneous injection at 9 am. Mice were then fasted for 6 hours and serum insulin was measured. Blood samples were collected at 0 min and 120 min and used for insulin measurement (n=4). Left-hand bars are controls. Right-hand bars are TAS4464 treatments.
Male C57BL6/J mice on Western diet were treated with 15 mg/kg TAS4464 via subcutaneous injection at 9 am. Mice were then fasted for 6 hours and serum c-peptide were measured (n=5).
Male C57BL6/J mice on chow diet were treated with 60 mg/kg MLN4924 via subcutaneous injection at 9 am. Mice were then fasted for 6 hours and serum c-peptide were measured (n=8)
(§1) Aspartate aminotransferase (AST) and alanine aminotransferase (ALT) assay kits were purchased from Pointe Scientific (Canton, MI). Free fatty acid assay kit was purchased from Biovision Inc. (Milpitas, CA). Insulin ELISA kit was purchased from Crystal Chem Inc. (Elk Grove Village, IL).
A hyperinsulinemic-euglycemic clamp study was conducted in which obese mice were treated with vehicle or MLN4924.

male C57BL/6J mice = test: Glucose tolerance test (GTT); assay type: in vivo; settings: 60 mg/kg SQ twice; for glucose tolerance in GTT: 6 h fast
Procedure: On the day of testing, mice were fasted for 6 h (from 9 am to 3 pm). Mice were then given 2 g/kg D-glucose via IP injection. Blood glucose was measured with an UltraTouch glucometer in time course over a 120-minute period.
Mice were treated with 2 doses of MLN4924 as described. After the second injection at 9 am, mice were fasted for 6 h from 9 am to 3 pm. Mice were injected intraperitoneally […] for PTT, and 0.5 U/kg insulin for ITT. Blood glucose was measured with a OneTouch Ultra glucose meter.

[1] = tested on: primary human hepatocytes; test: Western blot of insulin signaling in primary human hepatocytes; assay type: cell-based
Procedure: Cells were pre-treated with increasing dose of MLN4924 for 1 h followed by 100 nM insulin stimulation for 4 h. Western blot was then performed to evaluate insulin signaling activation reflected by AKT phosphorylation.
Cells were treated with MLN4924 for 8 h. IRS1 band densitometry is shown as mean ± SEM of 8-9 independent batches. “* ”, vs. Vehicle, p less than 0.05.
Cells were treated with MLN4924 for 8 h. IRS2 band densitometry is shown as mean ± SEM of 8-9 independent batches. “* ”, vs. Vehicle, p less than 0.05.
FIG. 18B is a Western blot analysis showing that MLN4924 enhances hepatocyte insulin responsiveness (signaling) by delaying feedback IRS degradation. Primary human hepatocytes cells were serum starved for 16 h. Cells were then pre-treated with MLN4924 for 1 h followed by insulin stimulation for 4 h.
IRS protein in IRS 1 and IRS2 band intensity was normalized to Actin band intensity. n=8-9. “*”, p<0.05 (unpaired t-test), vs. Vehicle.
AML12 cells were a generous gift from Dr. Yanqiao Zhang (Northeast Ohio Medical University). AML12 cells were cultured in DMEM medium supplemented with a mixture of insulin-transferrin-selenium (#41400-045, ThermoFisher, Waltham, MA). For experiments, cells were cultured in serum free medium overnight before various treatments were initiated. The siGENOME SMARTpool siRNA and siControl were purchased from Dharmacon, Inc. (Lafayette, CO). […]

[2] = tested on: male C57BL/6J mice fed C or WD; test: Prevention experiment: MLN4924 twice/week during 16 weeks of WD feeding; assay type: in vivo
Procedure: Mice fed WD became obese and insulin resistant. For both cohorts, body weight was measured weekly. Male C57BL/6J mice were fed C or WD for 16 weeks. Vehicle or MLN4924 (60 mg/kg) was administered via SQ injection twice/week for 16 weeks. Results are mean ±SEM. n=5-7. “*”, vs C+Veh; “#”, vs. WD+Veh, p<0.05.
Male C57BL/6J mice were purchased from the Jackson Laboratory (Bar Harbor, ME). Mice were fed a regular chow (C) diet or a Western diet (WD) that contains 42% fat calories and 0.2% cholesterol content (TD. 88137, Envigo Inc. Indianapolis, IN).
MLN4924 and TAS4464 were purchased from MedChemExpress (MCE, Monmouth Junction, NJ). For cell treatment, MLN4924 and TAS4464 were dissolved in DMSO. Cells were serum starved overnight and then treated with MLN4924, TAS4464 and/or insulin as indicated. For injection in mice, MLN4924 and TAS4464 were first dissolved in DMSO, which was further suspended in 10% (2-hydroxypropyl)-β-cyclodextrin (Sigma, St. Louis, MO). The final solution contains 1% DMSO. The subcutaneous injection volume is 200 µl/mouse.
Lipids were extracted in a mixture of chloroform: methanol (2:1; v: v), dried under nitrogen, and resuspended in isopropanol containing 1% triton X-100. Total cholesterol, free cholesterol and TG were measured with assay kits following the manufacturer’s instruction. Total cholesterol assay kit and TG assay kit were purchased from Pointe Scientific (Canton, MI).
as §1
Next investigated was the glucose lowering effect of CRL inhibition in mice rendered obese and insulin resistant by 16-weeks of WD feeding. […] Next conducted was an intervention study in which MLN4924 treatment was initiated after mice were fed WD for 8 weeks that rendered mice obese and insulin resistant. […] In summary, robust evidence is provided herein that pharmacological CRL inhibition is an effective approach to lowering hyperglycemia.

[3] = WD 16 weeks, 60 mg/kg SQ twice/week

## NS(=O)(=O)OC[C@@H]1C[C@@H](n2ccc3c(N[C@H]4CCc5ccccc54)ncnc32)C[C@@H]1O [MLN4924, ((1S,2S,4R)-4-(4-((1S)-2,3-dihydro-1H-inden-1-ylamino)-7H-pyrrolo[2,3-d]pyrimidin-7-yl)-2-hydroxycyclopentyl) methyl sulfamate]
Male C57BL6/J mice; acute MLN4924 treatment
  plasma insulin: ~ 0.55 ng/ml
  serum c-peptide: ~ 1.1 ng/ml
Male C57BL6/J mice; chow diet, 60 mg/kg SQ at 9 am, 6 h fast
  serum c-peptide concentration: elevated serum c-peptide concentration
Male C57BL/6J mice; vs vehicle
  peak blood glucose at 30 minutes post glucose challenge: significantly lower
Male C57BL/6J mice; 3-week WD-fed mice
  glucose tolerance in GTT: significantly improved glucose tolerance
Male C57BL/6J mice; chow condition
  basal glucose levels after 6 h fasting: did not significantly decrease basal glucose levels
Male C57BL/6J mice; chow-fed mice, 60 mg/kg
  glucose tolerance in GTT: significantly improved glucose tolerance; also recorded: improved overall glucose tolerance
[1]; MLN4924 (500 nM) 8 h, independent batches
  IRS1 and IRS2 protein abundance: consistently increased IRS1 and IRS2 protein abundance; also recorded: increased IRS protein abundance
[1]; MLN4924 pre-treatment 1 h, 100 nM insulin 4 h
  insulin activation of AKT: enhanced insulin activation of AKT; also recorded: increased IRS protein abundance and insulin-stimulated AKT activation
[2]; 16 weeks of MLN4924, 60 mg/kg SQ twice/week
  tolerability / hepatotoxicity: well tolerated and did not cause hepatotoxicity
[2]; C-fed mice, after 16 weeks of MLN4924
  transaminase (ALT) elevation: did not cause transaminase (ALT) elevation
[2]; [3]
  blood glucose (6 h fast): completely normalized blood glucose
  reduction of hepatic cholesterol: ~ 30%
  reduction of hepatic triglycerides (TG): ~ 40%
[2]; WD-fed mice, 16 weeks of MLN4924
  serum ALT: significantly reduced
